Measured values: patent publication US8022043B2, “Ceramide derivatives as modulators of immunity and autoimmunity” (Albert Einstein College of Medicine of Yeshiva University, priority 2004, dated 2011)

Legend:
[1] = system: splenocytes from NZB/W F1 mice; experiment: Cytokine induction in vitro with splenocytes from NZB/W F1 mice; type: cell-based
NK T cells = experiment: NK T cell activation screens (Example, FIG. 5 and Table 1); type: cell-based; settings: see Example
Text: Using these methods, we produced more than 60 novel amino substituted analogues of KRN7000. These were screened in a functional assay that assessed the ability of the compounds to activate NK T cell hybridomas in the presence of various types of cells expressing CD1d, or in the presence of recombinant CD1d proteins bound to the tissue culture plate surface (FIG. 5).

[2] = system: Bulk splenocytes from C57BL/6 mice; experiment: Splenocyte proliferation assay (3H-thymidine incorporation); type: cell-based; settings: for EC50: concentration giving 50% maximal response in proliferation of splenocyte cultures, 3H-thymidine incorporation
Description: The results were obtained using a splenocyte proliferation assay according to the following procedure: Bulk splenocytes from C57BL/6 mice were plated at 300,000 per well in 96-well flat-bottom tissue culture plates with the indicated ceramide-like glycolipid diluted in complete medium to the concentrations shown. After 48 h at 37° C., the plate wells were pulsed with 20 microliters of medium containing 50 microCi/ml ^3H-thymidine and incubated for a further 18 h. Cell proliferation was estimated by harvesting pulsed cells onto 96-well filtermats and scintillation counting on a 1450 Microbeta Trilux instrument (Wallac/Perkin Elmer, Boston, Mass.).

[3] = system: Bulk splenocytes from C57BL/6 mice; experiment: Cytokine response of splenocyte cultures (IL-4 and IFNγ ELISA); type: cell-based; settings: 500 nM glycolipid, 48 hours; for Cytokine Response IFNγ / Cytokine Response IL-4: culture supernatant ELISA, ND = below the reliable level for detection
Description: The cytokine response reported in Table 1 and FIG. 5C was determined by the following procedure: Bulk splenocytes from C57BL/6 mice were plated at 300,000 per well in 96-well flat-bottom tissue culture plates with ceramide-like glycolipids diluted to a concentration of 500 nM in 200 microliters complete medium. After 48 h at 37° C., 150 microliters of supernatant was removed for cytokine measurements. Supernatant levels of IL-4, and IFNγ were measured by standard enzyme-linked immunosorbent assay (ELISA), using capture and biotinylated detection antibody pairs (clones 11B11/BVD6-24G2-biotin, and R4-6A2/XMG1.2-biotin, respectively, from BD Pharmingen, San Diego, Calif.). […] Standards for IL-4 and IFNγ were from Peprotech (Rocky Hill, N.J.).

[4] = system: Bulk splenocytes from C57BL/6 mice; experiment: as above; type: cell-based; set-up: IL-4 levels compared with DB01-1: dose or concentration left out as unconfirmed; settings: in vitro splenocyte cultures
splenocyte cultures = experiment: Splenocyte cultures (DB03-6); type: cell-based
NK T hybridoma DN32.D3 = experiment: Murine NK T cell hybridoma stimulation assay (IL-2 release), HeLa.hCD1d as APC; type: cell-based, mouse; settings: presented by HeLa cells
Description: The ability of the compounds to activate NK T cell hybridomas in the presence of various types of cells expressing CD1d reported in FIG. 5A was determined using a murine NK T cell hybridoma stimulation assay. CD1d-transfected RMA-S cells were plated at 50,000 cells/well in flat-bottom tissue culture plates in 100 microliters complete medium containing varying concentrations of ceramide-like glycolipids for 6 h at 37° C. The plates were then centrifuged (430 g, 3 min), and cells washed with PBS three times. Fifty thousand NKT hybridoma cells (clone DN3A4.1-2) were then added in 100 microliters of medium for a 12 h stimulation. Cell-free supernatants were collected at the end of incubation and assayed for IL-2 by standard capture ELISA. Relative potencies of the ceramide-like glycolipids were calculated from the reciprocal effective concentrations at half-maximal response (1/EC50), and expressed as units by normalization to the observed potency for KRN7000.
IL-2 production by NK T hybridoma DN32D3 in response to eight selected ceramide-like glycolipids, was determined using three different cell types as antigen presenting cells. RMA-S.mCD1d are a mouse lymphoma line that has been transfected to express murine CD1d. JAWS II is a mouse dendritic cell line that naturally expresses mouse CD1d. HeLa.hCD1d is a human cervical carcinoma cell line that has been transfected to express human CD1d. […]

Structure (SMILES) | effectiveness of compound (NK T cells) | EC50 [2] [nM] | IL-4/IFNγ ratio divided by this ratio for DB01-1 (value in parentheses) [3] | ratio IL-4/IFNγ [3] | Cytokine Response IFNγ [3] [ng/mL] | Cytokine Response IL-4 [3] [ng/mL] | also measured
CCCCCCCCCCCCCC[C@@H](O)[C@@H](O)[C@H](COC1OC(CO)C(O)C(O)C1O)NC(=O)CCCCCC (stereo partly shown) [YTC03-25] | Particularly effective |  |  |  |  |  | IL-4 induction relative to IFNγ [1]: enhanced IL-4 induction relative to IFNγ
CCCCCCCCCCCCCC[C@@H](O)[C@@H](O)[C@H](CO[C@H]1O[C@H](CO)[C@H](O)[C@H](O)[C@H]1O)NC(=O)C(c1ccccc1)C1CCCC1 (stereo partly shown) [YTCO3-50] | Particularly effective | 5.4 | 0.3 | 0.007 | 9.47 | 0.07 | 
CCCCCCCCCCCCCC[C@@H](O)[C@@H](O)[C@H](COC1OC(CO)C(O)C(O)C1O)NC(=O)Cc1ccc(OC)c(OC)c1 (stereo partly shown) [YTC03-24] |  |  |  |  |  |  | IL-4 induction relative to IFNγ [1]: enhanced IL-4 induction relative to IFNγ
CCCCCCCCCCCCCCCCCCCCCCCC(=O)N[C@@H](COC1OC(CO)C(O)C(O)C1O)[C@H](O)[C@H](O)CCCCCCCCCCCCCC (stereo partly shown) [DB02-1] |  |  |  |  |  |  | CD1d-dependent proliferation ([2]; FIG. 5D): stimulation of CD1d-dependent proliferation; IL-4 levels compared with DB01-1 [4]: nearly equivalent; IFNγ levels compared with DB01-1 ([4]; all concentrations): markedly lower
CC/C=C\C/C=C\C/C=C\C/C=C\C/C=C\CCCC(=O)N[C@@H](COC1OC(CO)C(O)C(O)C1O)[C@H](O)[C@H](O)CCCCCCCCCCCCCC (stereo partly shown) [DB03-6] |  |  |  |  |  |  | IL-2 induction (splenocyte cultures): minimal IL-2 induction; IL-4 relative to IFNγ (splenocyte cultures): apparent enhancement of IL-4 relative to IFNγ; agonist activity (splenocyte cultures): agonist
CCCCCCCCCCCCCC[C@@H](O)[C@@H](O)[C@H](CO[C@H]1O[C@H](CO)[C@H](O)[C@H](O)[C@H]1O)NC(=O)Cc1ccc(OCC)cc1 [YTCO3-59] | Particularly effective | 0.1 | 309.4 | 8.045 | 0.22 | 1.77 | 
CCCCCCCCCCCCCC[C@@H](O)[C@@H](O)[C@H](CO[C@H]1O[C@H](CO)[C@H](O)[C@H](O)[C@H]1O)NC(=O)Cc1ccc(Br)cc1 [YTCO3-47] | Particularly effective | 7.5 | 0.4 | 0.011 | 19.63 | 0.21 | 
CCCCCCCCCCCCCC[C@@H](O)[C@@H](O)[C@H](COC1OC(CO)C(O)C(O)C1O)NC(=O)Cc1ccc(F)cc1 (stereo partly shown) [YTC03-30] |  |  |  |  |  |  | potency greater than KRN7000 (NK T hybridoma DN32.D3): at least 100 fold
